# According to patent US20250147039A1, “Compounds for complexation of rare earth elements and/or s-, p-, d- block metals, their coordination compounds, peptide conjugates, method of their preparation and use thereof” (USTAV ORGANICKE CHEMIE A BIOCHEMIE AV CR V.V.I., priority 2021, published 2025):
# Tests used:
# [1] = Formation of 1,5-cz-[M(Lig)] from Lig and M^II ions (metal dependent click-zip) (Charts 6, 7); assay type: physicochemical; details: MOPS/NaOH buffer pH 7.0; for conversion to 1,5-cz-[M(Lig)], Ca^II / conversion to 1,5-cz-[M(Lig)], Cd^II: TD728 in 50% i-PrOH
# [2] = Formation of 1,5-cz-[M(Lig)] from Lig and M^III ions (metal dependent click-zip) (Charts 4, 5); assay type: physicochemical; details: MOPS/NaOH buffer pH 7.0, TD728, TD827 in 50% i-PrOH; for conversion to 1,5-cz-[M(Lig)], Y^III: TD714 sum of two diastereoisomers
# [3] = Alkali metal dependent formation of 1,5-cz-Lig and 1,4-cz-Lig isomers from Lig at pH 10.2 (Chart 14); assay type: physicochemical; details: B: 1 day at 80° C., Borate/(M^I)2CO3 buffer pH 10.2
# [4] = Formation of 1,5-cz-[Ln(Lig)] from Lig and Ln^III ions (metal dependent click-zip), MOPS/NaOH buffer pH 7.0, analytical HPLC (Charts 1, 2); details: MOPS/NaOH buffer pH 7.0
# [5] = 1 hour at 80° C., TD714 sum of two diastereoisomers
# [6] = visible analyte free precipitate
compound,measurement,setting,value
C#Cc1cccc(CN2CCN(CC(=O)O)CCN(Cc3cccc(CN=[N+]=[N-])n3)CCN(CP(=O)(O)O)CC2)n1 [TD714],"conversion to 1,5-cz-[M(Lig)], Ba^II",[1]; 1 week at 80° C.,0%
same,"conversion to 1,5-cz-[M(Lig)], Sr^II",[1]; 1 week at 80° C.,0%
same,"conversion to 1,5-cz-[M(Lig)], Ca^II",[1]; 1 week at 80° C.,6%
same,"conversion to 1,5-cz-[M(Lig)], Cd^II",[1]; 1 week at 80° C.,92%
same,"conversion to 1,5-cz-[M(Lig)], Ba^II",[1]; 1 hour at 80° C.,0%
same,"conversion to 1,5-cz-[M(Lig)], Sr^II",[1]; 1 hour at 80° C.,0%
same,"conversion to 1,5-cz-[M(Lig)], Ca^II",[1]; 1 hour at 80° C.,0%
same,"conversion to 1,5-cz-[M(Lig)], Cd^II",[1]; [5],89%
same,"conversion to 1,5-cz-[M(Lig)], Y^III",[2]; 1 week at 80° C.,89%
same,"conversion to 1,5-cz-[M(Lig)], Y^III",[2]; 1 hour at 80° C.,22%
same,"conversion to 1,4-cz-Lig isomer, Cs^I",[3],44%
same,"conversion to 1,4-cz-Lig isomer, K^I",[3],46%
same,"conversion to 1,4-cz-Lig isomer, Na^I",[3],7%
same,"conversion to 1,4-cz-Lig isomer, Rb^I",[3],45%
same,"conversion to 1,5-cz-Lig isomer, Cs^I",[3],9%
same,"conversion to 1,5-cz-Lig isomer, K^I",[3],10%
same,"conversion to 1,5-cz-Lig isomer, Na^I",[3],81%
same,"conversion to 1,5-cz-Lig isomer, Rb^I",[3],9%
same,"conversion to 1,4-cz-Lig isomer, Li^I",[3]; [6],12%
same,"conversion to 1,5-cz-Lig isomer, Li^I",[3]; [6],15%
same,"conversion to 1,5-cz-[Ln(Lig)], Ce^III",[4]; after 1 week at 80° C.,40%
same,"conversion to 1,5-cz-[Ln(Lig)], Ce^III",[4]; after 1 hour at 80° C.,1%
same,"conversion to 1,5-cz-[Ln(Lig)], Dy^III",[4]; after 1 week at 80° C.,91%
same,"conversion to 1,5-cz-[Ln(Lig)], Dy^III",[4]; after 1 hour at 80° C.,23%
same,"conversion to 1,5-cz-[Ln(Lig)], Er^III",[4]; after 1 week at 80° C.,93%
same,"conversion to 1,5-cz-[Ln(Lig)], Er^III",[4]; after 1 hour at 80° C.,34%
same,"conversion to 1,5-cz-[Ln(Lig)], Eu^III",[4]; after 1 week at 80° C.,85%
same,"conversion to 1,5-cz-[Ln(Lig)], Eu^III",[4]; after 1 hour at 80° C.,7%
same,"conversion to 1,5-cz-[Ln(Lig)], Gd^III",[4]; after 1 week at 80° C.,85%
same,"conversion to 1,5-cz-[Ln(Lig)], Gd^III",[4]; after 1 hour at 80° C.,9%
same,"conversion to 1,5-cz-[Ln(Lig)], Ho^III",[4]; after 1 week at 80° C.,93%
same,"conversion to 1,5-cz-[Ln(Lig)], Ho^III",[4]; after 1 hour at 80° C.,26%
same,"conversion to 1,5-cz-[Ln(Lig)], La^III",[4]; after 1 week at 80° C.,4%
same,"conversion to 1,5-cz-[Ln(Lig)], La^III",[4]; after 1 hour at 80° C.,0%
same,"conversion to 1,5-cz-[Ln(Lig)], Lu^III",[4]; after 1 week at 80° C.,93%
same,"conversion to 1,5-cz-[Ln(Lig)], Lu^III",[4]; after 1 hour at 80° C.,37%
same,"conversion to 1,5-cz-[Ln(Lig)], Nd^III",[4]; after 1 week at 80° C.,73%
same,"conversion to 1,5-cz-[Ln(Lig)], Nd^III",[4]; after 1 hour at 80° C.,3%
same,"conversion to 1,5-cz-[Ln(Lig)], Pr^III",[4]; after 1 week at 80° C.,80%
same,"conversion to 1,5-cz-[Ln(Lig)], Pr^III",[4]; after 1 hour at 80° C.,2%
same,"conversion to 1,5-cz-[Ln(Lig)], Sm^III",[4]; after 1 week at 80° C.,82%
same,"conversion to 1,5-cz-[Ln(Lig)], Sm^III",[4]; after 1 hour at 80° C.,5%
same,"conversion to 1,5-cz-[Ln(Lig)], Tb^III",[4]; after 1 week at 80° C.,92%
same,"conversion to 1,5-cz-[Ln(Lig)], Tb^III",[4]; after 1 hour at 80° C.,17%
same,"conversion to 1,5-cz-[Ln(Lig)], Tm^III",[4]; after 1 week at 80° C.,94%
same,"conversion to 1,5-cz-[Ln(Lig)], Tm^III",[4]; after 1 hour at 80° C.,40%
same,"conversion to 1,5-cz-[Ln(Lig)], Yb^III",[4]; after 1 week at 80° C.,93%
same,"conversion to 1,5-cz-[Ln(Lig)], Yb^III",[4]; after 1 hour at 80° C.,40%
CC(C)(C)C#Cc1cccc(CN2CCN(CC(=O)O)CCN(Cc3cccc(CN=[N+]=[N-])n3)CCN(CC(=O)O)CC2)n1 [TD959],"conversion to 1,5-cz-[M(Lig)], Ca^II",[1]; 1 week at 80° C.,83%
same,"conversion to 1,5-cz-[M(Lig)], Cd^II",[1]; 1 week at 80° C.,96%
same,"conversion to 1,5-cz-[M(Lig)], Ca^II",[1]; 1 hour at 80° C.,1%
same,"conversion to 1,5-cz-[M(Lig)], Cd^II",[1]; [5],2%
same,"conversion to 1,5-cz-[M(Lig)], Sc^III",[2]; 1 week at 80° C.,1%
same,"conversion to 1,5-cz-[M(Lig)], Y^III",[2]; 1 week at 80° C.,82%
same,"conversion to 1,5-cz-[M(Lig)], Sc^III",[2]; 1 hour at 80° C.,0%
same,"conversion to 1,5-cz-[M(Lig)], Y^III",[2]; 1 hour at 80° C.,1%
same,"conversion to 1,5-cz-[Ln(Lig)], Ce^III",[4]; after 1 week at 80° C.,11%
same,"conversion to 1,5-cz-[Ln(Lig)], Ce^III",[4]; after 1 hour at 80° C.,0%
same,"conversion to 1,5-cz-[Ln(Lig)], Dy^III",[4]; after 1 week at 80° C.,76%
same,"conversion to 1,5-cz-[Ln(Lig)], Dy^III",[4]; after 1 hour at 80° C.,1%
same,"conversion to 1,5-cz-[Ln(Lig)], Er^III",[4]; after 1 week at 80° C.,93%
same,"conversion to 1,5-cz-[Ln(Lig)], Er^III",[4]; after 1 hour at 80° C.,3%
same,"conversion to 1,5-cz-[Ln(Lig)], Eu^III",[4]; after 1 week at 80° C.,51%
same,"conversion to 1,5-cz-[Ln(Lig)], Eu^III",[4]; after 1 hour at 80° C.,1%
same,"conversion to 1,5-cz-[Ln(Lig)], Gd^III",[4]; after 1 week at 80° C.,54%
same,"conversion to 1,5-cz-[Ln(Lig)], Gd^III",[4]; after 1 hour at 80° C.,1%
same,"conversion to 1,5-cz-[Ln(Lig)], Ho^III",[4]; after 1 week at 80° C.,84%
same,"conversion to 1,5-cz-[Ln(Lig)], Ho^III",[4]; after 1 hour at 80° C.,2%
same,"conversion to 1,5-cz-[Ln(Lig)], La^III",[4]; after 1 week at 80° C.,18%
same,"conversion to 1,5-cz-[Ln(Lig)], La^III",[4]; after 1 hour at 80° C.,0%
same,"conversion to 1,5-cz-[Ln(Lig)], Lu^III",[4]; after 1 week at 80° C.,99%
same,"conversion to 1,5-cz-[Ln(Lig)], Lu^III",[4]; after 1 hour at 80° C.,6%
same,"conversion to 1,5-cz-[Ln(Lig)], Nd^III",[4]; after 1 week at 80° C.,34%
same,"conversion to 1,5-cz-[Ln(Lig)], Nd^III",[4]; after 1 hour at 80° C.,0%
same,"conversion to 1,5-cz-[Ln(Lig)], Pr^III",[4]; after 1 week at 80° C.,27%
same,"conversion to 1,5-cz-[Ln(Lig)], Pr^III",[4]; after 1 hour at 80° C.,0%
same,"conversion to 1,5-cz-[Ln(Lig)], Sm^III",[4]; after 1 week at 80° C.,48%
same,"conversion to 1,5-cz-[Ln(Lig)], Sm^III",[4]; after 1 hour at 80° C.,1%
same,"conversion to 1,5-cz-[Ln(Lig)], Tb^III",[4]; after 1 week at 80° C.,68%
same,"conversion to 1,5-cz-[Ln(Lig)], Tb^III",[4]; after 1 hour at 80° C.,1%
same,"conversion to 1,5-cz-[Ln(Lig)], Tm^III",[4]; after 1 week at 80° C.,97%
same,"conversion to 1,5-cz-[Ln(Lig)], Tm^III",[4]; after 1 hour at 80° C.,4%
same,"conversion to 1,5-cz-[Ln(Lig)], Yb^III",[4]; after 1 week at 80° C.,98%
same,"conversion to 1,5-cz-[Ln(Lig)], Yb^III",[4]; after 1 hour at 80° C.,5%
